Legend:
[1] = system: Trypanosoma brucei rhodesiense; test: Antitrypanosomal activity against Trypanosoma brucei rhodesiense STIB900 assessed as parasite growth inhibition; format: functional, organism-based
[2] = system: Vero; test: Cytotoxicity against African green monkey Vero cells assessed as reduction in cell viability measured after 72 hrs by SRB assay; format: cell-based; settings: Chlorocebus sabaeus
[3] = Selectivity index, ratio of IC50 for cytotoxicity against African green monkey Vero cells to IC50 for antitrypanosomal activity against Trypanosoma brucei rhodesiense STI B900; format: toxicity, cell-based; settings: read-out: Ratio IC50
[4] = system: Trypanosoma brucei rhodesiense; test: Antitrypanosomal activity against Trypanosoma brucei rhodesiense STIB900 assessed as parasite growth inhibition measured after 72 hrs by alamar blue dye based spectrofluorimetric analysis; format: functional, organism-based; settings: STIB900, 72 h
[5] = Inhibition of Trypanosoma Trypanothione reductase in presence of NADPH by DTNB based colorimetric assay
[6] = system: Trypanosoma brucei; test: Antitrypanosomal activity against bloodstream form of Trypanosoma brucei assessed as parasite growth inhibition incubated for 3 days by resazurin staining based assay; format: functional, organism-based; settings: 72 h

Row | Compound | IC50 [1] [µM] | IC50 [2] [µM] | selectivity ratio [3] | IC50 [4] [µM] | IC50 [5] [µM] | EC50 [6] [µM]
1 | C=C1C[C@H]2OC(=O)C(=C)[C@@H]2[C@H](OC(=O)/C(C)=C/C)C[C@@]2(C)OC1=CC2=O | 0.015 |  |  |  |  | 
2 | OC1CCCc2ccc(OCc3ccccc3)cc21 (stereo unspecified) |  | 39 | 0.6 | 65.9 |  | 
3 | CN1CCc2cc(Oc3ccccc3)ccc2C1 |  | > 100 | > 5.7 | 19.8 |  | 
4 | CN1Cc2c(OCc3ccc(-c4ccccc4)cc3)cccc2[C@@H](O)C1 |  | > 50 | > 16 | 3.1 |  | 
5 | OC1CN(Cc2ccccc2)Cc2ccc(OCc3ccc(-c4ccccc4)cc3)cc21 (stereo unspecified) |  | 14.8 | 5.5 | 2.7 |  | 
6 | OC1CNCc2c(OCc3ccc(-c4ccccc4)cc3)cccc21 (stereo unspecified) |  | 21.6 | 8 | 2.7 |  | 
7 | OC1CNCc2c(OCc3cccc(Br)c3)cccc21 (stereo unspecified) |  | 73.5 | 28.3 | 2.6 |  | 
8 | CN1Cc2ccc(OCc3ccc(-c4ccccc4)cc3)cc2[C@H](OC(=O)c2ccccc2)C1 |  | 12.9 | 0.8 | 16.3 |  | 
9 | CN1CCc2cc(-c3ccc(-c4ccccc4)cc3)ccc2C1 |  | 15.6 | 57.8 | 0.27 |  | 
10 | Clc1ccc2c(c1)N(CCCN1CCN(CCCc3ccccc3)CC1)c1ccccc1S2 |  |  |  |  | 0.75 | 0.775
11 | OC1CN(Cc2ccccc2)Cc2ccc(OCc3ccccc3)cc21 (stereo unspecified) |  | 31.8 | 3.8 | 8.4 |  | 
12 | OC1CNCc2ccc(OCc3cccc(Br)c3)cc21 (stereo unspecified) |  | 54.3 | 16.3 | 3.33 |  | 
13 | OC1CNCc2c(OCc3ccc(Br)cc3)cccc21 (stereo unspecified) |  | > 50 | > 19.7 | 2.54 |  | 
14 | Cc1ccccc1COc1cccc2c1CNCC2O (stereo unspecified) |  | > 100 | > 6.1 | 16.5 |  | 
15 | OC1CNCc2c(OCc3ccccc3)cccc21 (stereo unspecified) |  | > 50 | > 1.9 | 26.2 |  | 
16 | CN1Cc2c(OCc3ccccc3)cccc2[C@@H](O)C1 |  | > 100 | > 1.4 | 69.8 |  | 
17 | OC1CNCc2ccc(OCc3ccccc3)cc21 (stereo unspecified) |  | > 50 | > 2.9 | 17.4 |  | 
18 | CN1Cc2ccc(OCc3ccc(-c4ccccc4)cc3)cc2[C@@H](OC(=O)c2ccccc2)C1 |  | 10.5 | 0.6 | 16.4 |  | 
19 | OC1CNCc2ccc(OCCC3CCCCC3)cc21 (stereo unspecified) |  | > 50 | > 20 | 2.5 |  | 
20 | CN1CCc2cc(-c3ccc4ccccc4c3)ccc2C1 |  | 24.1 | 8.9 | 2.7 |  | 
21 | OC1CNCc2ccc(OCc3ccc(-c4ccccc4)cc3)cc21 (stereo unspecified) |  | 20.8 | 83.2 | 0.25 |  | 
22 | Oc1ccc2c(c1)C(O)CN(Cc1ccccc1)C2 (stereo unspecified) |  | > 100 | > 1.4 | 70.5 |  | 
23 | Cc1ccccc1COc1ccc2c(c1)C(O)CNC2 (stereo unspecified) |  | > 25 | > 7.7 | 3.26 |  | 
24 | Oc1ccc2c(c1)C(O)CN(Cc1ccc(-c3ccccc3)cc1)C2 (stereo unspecified) |  | > 50 | > 9.3 | 5.4 |  | 
25 | CN1CCc2cc(-c3ccccc3)ccc2C1 |  | > 50 | > 16.7 | 3 |  | 
26 | CN1CCc2cc(Oc3ccc(-c4ccccc4)cc3)ccc2C1 |  | 22.3 | 8.3 | 2.7 |  | 
27 | CN1Cc2c(OCCC3CCCCC3)cccc2[C@@H](O)C1 |  | 62.7 | 4.8 | 13 |  | 
28 | OC1CNCc2c(OCCC3CCCCC3)cccc21 (stereo unspecified) |  | 25.3 | 12.6 | 2.01 |  | 
